Tested on: 596521-263-R-J1-PDC complex spheroids, viability % of control
Experiment: Anticancer human tumor 596521-263-R-J1-PDC patient-derived soft tissue sarcoma cell line growth inhibition [GQUAD]
Details: for IC50: curve of first compound; for viability, T/C: stronger effect = lower value
Outline: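 Viability of tumor cells grown as complex spheroids with endothelial and stromal cells, exposed to drug combinations. Top concentration at or near clinical Cmax (else 10 microM), diluted in half-log increments.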

[1] = second compound 0.0316 µM, first compound 0.0316 µM
[2] = second compound 0.0316 µM, first compound 0.1 µM
[3] = second compound 0.0316 µM, first compound 0.316 µM
[4] = second compound 0.0316 µM, first compound 1 µM
[5] = second compound 0.0316 µM, first compound 3.16 µM
[6] = second compound 0.0316 µM, first compound 10 µM
[7] = second compound 0.1 µM, first compound 0.0316 µM
[8] = second compound 0.1 µM, first compound 0.1 µM
[9] = second compound 0.1 µM, first compound 0.316 µM
[10] = second compound 0.1 µM, first compound 1 µM
[11] = second compound 0.1 µM, first compound 3.16 µM
[12] = second compound 0.1 µM, first compound 10 µM
[13] = second compound 0.316 µM, first compound 0.0316 µM
[14] = second compound 0.316 µM, first compound 0.1 µM
[15] = second compound 0.316 µM, first compound 0.316 µM
[16] = second compound 0.316 µM, first compound 1 µM
[17] = second compound 0.316 µM, first compound 3.16 µM
[18] = second compound 0.316 µM, first compound 10 µM
[19] = second compound 1 µM, first compound 0.0316 µM
[20] = second compound 1 µM, first compound 0.1 µM
[21] = second compound 1 µM, first compound 0.316 µM
[22] = second compound 1 µM, first compound 1 µM
[23] = second compound 1 µM, first compound 3.16 µM
[24] = second compound 1 µM, first compound 10 µM
[25] = second compound 3.16 µM, first compound 0.0316 µM
[26] = second compound 3.16 µM, first compound 0.1 µM
[27] = second compound 3.16 µM, first compound 0.316 µM
[28] = second compound 3.16 µM, first compound 1 µM
[29] = second compound 3.16 µM, first compound 3.16 µM
[30] = second compound 3.16 µM, first compound 10 µM
[31] = second compound 10 µM, first compound 0.0316 µM
[32] = second compound 10 µM, first compound 0.1 µM
[33] = second compound 10 µM, first compound 0.316 µM
[34] = second compound 10 µM, first compound 1 µM
[35] = second compound 10 µM, first compound 3.16 µM
[36] = second compound 10 µM, first compound 10 µM
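Further: spheroids exposed to drugs for 7 days before viability reading.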
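Wherever viability, T/C is given: 100% = DMSO vehicle control viability.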

C=CC(=O)N1CCN(c2nc(=O)n(-c3c(C)ccnc3C(C)C)c3nc(-c4c(O)cccc4F)c(F)cc23)C(C)C1 (stereo unspecified) + Cc1[nH]c2ccc(F)cc2c1-c1nc2c3cccnc3c3ncccc3c2[nH]1
IC50 (second compound 0.0316 µM): > 10 µM
IC50 (second compound 0.1 µM): > 10 µM
IC50 (second compound 0.316 µM): > 10 µM
IC50 (second compound 1 µM): > 10 µM
IC50 (second compound 3.16 µM): > 10 µM
IC50 (second compound 10 µM): > 10 µM
viability, T/C [1]: 91.6%
viability, T/C [2]: 102%
viability, T/C [3]: 98%
viability, T/C [4]: 100%
viability, T/C [5]: 103%
viability, T/C [6]: 69.3%
viability, T/C [7]: 97%
viability, T/C [8]: 97.1%
viability, T/C [9]: 95.2%
viability, T/C [10]: 107%
viability, T/C [11]: 90.8%
viability, T/C [12]: 67.8%
viability, T/C [13]: 91.5%
viability, T/C [14]: 108%
viability, T/C [15]: 89.5%
viability, T/C [16]: 99.7%
viability, T/C [17]: 89.8%
viability, T/C [18]: 67%
viability, T/C [19]: 95.6%
viability, T/C [20]: 82.5%
viability, T/C [21]: 99.8%
viability, T/C [22]: 97.5%
viability, T/C [23]: 90.8%
viability, T/C [24]: 75.8%
viability, T/C [25]: 90.7%
viability, T/C [26]: 88.2%
viability, T/C [27]: 91.9%
viability, T/C [28]: 95.1%
viability, T/C [29]: 90.8%
viability, T/C [30]: 73.3%
viability, T/C [31]: 71%
viability, T/C [32]: 72%
viability, T/C [33]: 83.1%
viability, T/C [34]: 72.1%
viability, T/C [35]: 85.3%
viability, T/C [36]: 56.4%

Nc1ccn(C2OC(CO)C(O)C2(F)F)c(=O)n1 (stereo unspecified) + Cc1[nH]c2ccc(F)cc2c1-c1nc2c3cccnc3c3ncccc3c2[nH]1
IC50 (second compound 0.0316 µM): 0.0347 µM
IC50 (second compound 0.1 µM): 0.0581 µM
IC50 (second compound 0.316 µM): < 0.0316 µM
IC50 (second compound 1 µM): < 0.0316 µM
IC50 (second compound 3.16 µM): 0.125 µM
IC50 (second compound 10 µM): < 0.0316 µM
viability, T/C [1]: 54.6%
viability, T/C [2]: 45.5%
viability, T/C [3]: 38.1%
viability, T/C [4]: 38.7%
viability, T/C [5]: 42.6%
viability, T/C [6]: 32.9%
viability, T/C [7]: 57%
viability, T/C [8]: 47.2%
viability, T/C [9]: 38%
viability, T/C [10]: 47.2%
viability, T/C [11]: 39.2%
viability, T/C [12]: 41.5%
viability, T/C [13]: 57%
viability, T/C [14]: 39%
viability, T/C [15]: 36.4%
viability, T/C [16]: 44.2%
viability, T/C [17]: 45.4%
viability, T/C [18]: 41.1%
viability, T/C [19]: 53.3%
viability, T/C [20]: 38.3%
viability, T/C [21]: 43.6%
viability, T/C [22]: 39.3%
viability, T/C [23]: 40.8%
viability, T/C [24]: 37.9%
viability, T/C [25]: 60.7%
viability, T/C [26]: 49.2%
viability, T/C [27]: 43%
viability, T/C [28]: 42%
viability, T/C [29]: 42.7%
viability, T/C [30]: 30.7%
viability, T/C [31]: 56.7%
viability, T/C [32]: 37.3%
viability, T/C [33]: 38.8%
viability, T/C [34]: 32.7%
viability, T/C [35]: 38.2%
viability, T/C [36]: 36.3%

O=C(c1cc(Cc2n[nH]c(=O)c3ccccc23)ccc1F)N1CCN(C(=O)C2CC2)CC1 + Cc1cnc(CNC(=O)c2c(=O)c3ccc(N4CCCN(C)CC4)nc3n3c2sc2ccccc23)cn1
IC50 (second compound 0.0316 µM): > 10 µM
IC50 (second compound 0.1 µM): > 10 µM
IC50 (second compound 0.316 µM): > 10 µM
IC50 (second compound 1 µM): > 10 µM
IC50 (second compound 3.16 µM): < 0.0316 µM
IC50 (second compound 10 µM): < 0.0316 µM
viability, T/C [1]: 92%
viability, T/C [2]: 91%
viability, T/C [3]: 96%
viability, T/C [4]: 80.2%
viability, T/C [5]: 81.4%
viability, T/C [6]: 68.9%
viability, T/C [7]: 86.3%
viability, T/C [8]: 80.6%
viability, T/C [9]: 82.8%
viability, T/C [10]: 70.3%
viability, T/C [11]: 71.4%
viability, T/C [12]: 56.4%
viability, T/C [13]: 71.8%
viability, T/C [14]: 77.9%
viability, T/C [15]: 73.4%
viability, T/C [16]: 78.1%
viability, T/C [17]: 73.3%
viability, T/C [18]: 58.1%
viability, T/C [19]: 68.2%
viability, T/C [20]: 64.2%
viability, T/C [21]: 59.4%
viability, T/C [22]: 64.3%
viability, T/C [23]: 60.9%
viability, T/C [24]: 54.1%
viability, T/C [25]: 47.9%
viability, T/C [26]: 50.1%
viability, T/C [27]: 52.2%
viability, T/C [28]: 56.8%
viability, T/C [29]: 52.3%
viability, T/C [30]: 48.8%
viability, T/C [31]: 46.1%
viability, T/C [32]: 48.4%
viability, T/C [33]: 47.4%
viability, T/C [34]: 46.6%
viability, T/C [35]: 50.9%
viability, T/C [36]: 41.8%

— PubChem BioAssay AID2060500 (Molecular Pharmacology Branch, DTP, NCI, 2025)
